# Assay results from US6936628B2, “Oral administration of epothilones” (Bristol-Myers Squibb Company, priority 2002, dated 2005).
# Where “and” joins values, the source holds several entries; their conditions need not be identical. Equal values may be shown once. Read-outs that look alike come from different tables or passages of the source.
# Columns and labels:
# [1] = Stability of aqueous solution (time for 5% drug loss, t95); assay type: physicochemical; conditions: 37° C.
# [2] = Water solubility (statement); assay type: physicochemical
# Method: For these reasons Compound A may be formulated in an entirely aqueous excipient system for parenteral administration. To determine whether differences in the dosing vehicle may affect the antitumor activity of Compound A, a direct head-to-head comparison of the antitumor efficacy of Compound A formulated in either cremophor/ethanol/water (10:10:80, v/v/v) or sodium acetate buffer (30 mM, pH 5.0) was conducted. No formulation related effect was observed.
# [3] = tested on: HCT116/VM46 cells; assay: In vitro cytotoxicity assay (MTS), HCT116/VM46; assay type: cell-based, human; conditions: Homo sapiens, HCT-116/VM46; HCT116/VM46 (MDR colon line), 72-hour incubation
# [4] = tested on: tubulin isolated from calf brain; assay type: biochemical
# [5] = tested on: rabbit Purkinje fiber; assay: Rabbit Purkinje-fiber action potential model; assay type: cell-based; conditions: 30 μM
# Method: Human embryonic kidney (HEK293) cells stably transfected with the human ether-a-go-go related gene (HERG) cDNA were utilized in the HERG assay. Rabbit Purkinje fibres were used for the Purkinje-fibre action potential assay^7.
# In a non-GLP study^7, Compound A, at concentrations of 3, 10 and 30 μM, was evaluated in an in vitro rabbit Purkinje fiber model. This model was developed to determine if a compound would affect the action-potential duration of the Purkinje fiber or other action-potential parameters. […] Based on these findings, Compound A is unlikely to provoke clinically relevant electrocardiographic effects in vivo.
# [6] = Stability in rat EDTA plasma and whole blood; assay type: in vitro ADME
# Method: Plasma samples from exploratory pharmacokinetic studies were analyzed for Compound A concentrations using an LC/MS/MS assay with a standard curve range of 3.9 to 2000 ng/mL. In pharmacodynamic studies, Compound A concentrations were determined using an LC/MS/MS assay with a standard curve range of 10-40000 nM (5.23-20920 ng/mL) in mouse plasma. For toxicology studies, validated LC/MS/MS assays were used to determine the concentrations of Compound A in rat and dog plasma. Analytical data management for the validated assays was carried out using Watson®. The standard curve range for the validated assay in both matrices was 2 to 500 ng/mL of Compound A. The coefficient of variation for the inter- and intra-assay precision in rat and dog plasma was within 9% and the accuracy was greater than 92%. […] Compound A was stable for at least 4 months at !20EC and through at least 3 freeze-thaw cycles in rat and dog EDTA plasma. In addition, Compound A was stable in fresh rat and dog EDTA whole blood for at least 1 h at 4EC.
# [7] = Single dose pharmacokinetic study in dogs; assay type: in vivo, beagle dogs
# Method: The vehicle used for both IV and oral dose was propylene glycol:ethanol:phosphate buffer (pH 7.4-8.0) (40:5:55). […] The VSS value after IV administration was 4.7 L/kg, which is greater than the reported total body water of 0.6 L/kg in dogs, indicating significant extravascular distribution of Compound A. The T-HALF of Compound A was 3.9 and 3.1 h after IV and oral administration, respectively.
# [8] = Oral bioavailability in humans; conditions: in vivo, human patients
# Text: Compound A was well absorbed orally, providing a favorable drug exposure profile that is consistant with efficacious exposure in preclinical cancer models.
# [9] = molecular target: T1, CYP3A4 (Homo sapiens, UniProt P08684); assay: Metabolism by specific CYP enzymes (human liver microsomes with specific inhibitors); assay type: in vitro ADME
# Method: Compound A was incubated with human liver microsomes along with compounds specific for the inhibition of individual cytochrome P450s commonly involved in drug metabolism. The inhibitors used were; furafylline (CYP1A2), sulfaphenazole (CYP2C9), tranylcypromine (CYP2C19), quinidine (CYP2D6), troleandomycin (CYP3A4), and ketoconazole (CYP3A4).
# [10] = Stability of diluted solutions; assay type: physicochemical; conditions: diluted with 0.9% Sodium Chloride Injection, 5° C. or room temperature and room light
# [11] = tested on: Pat-7 human ovarian carcinoma; conditions: Balb/c nu/nu, mouse, in vivo, iv
# [12] = tested on: Pat-26 human pancreatic carcinoma; conditions: mouse, in vivo
# [13] = vehicle 1 versus vehicle 2
# Method: In another pharmacokinetic study, fasted male Sprague-Dawley rats, assigned to two IA groups (2 mg/kg) and one oral (8 mg/kg) group (n=3/group), were administered a single dose of Compound A. Compound A was prepared for IA administration in two separate vehicles: vehicle 1, cremophor:ethanol:water (10:10:80), and vehicle 2, ethanol:phosphate buffer, 0.05 M, pH 7.4 (6:94). The vehicle for the oral administration was ethanol:phosphate buffer, 0.3 M, pH 8 (18:82). Samples were collected at 10, 15, 30, and 45 min, and at 1, 2, 4, 6, 8, 10, 24, and 48 hours after dosing.
# [14] = molecular target: human CYP2C19 (Homo sapiens, UniProt P33261); assay: biochemical
# [15] = molecular target: CYP2C9 (Homo sapiens, UniProt P11712); assay: biochemical
# [16] = Microsomal incubation, rat; conditions: rat liver microsomes + NADPH, 20 μM
# [17] = Microsomal incubation, dog; conditions: dog liver microsomes + NADPH, 20 μM
# [18] = Liver S9 incubation, mouse; conditions: mouse liver S9, 20 μM
# [19] = Liver S9 incubation, human; conditions: human liver S9, 20 μM
# [20] = molecular target: T1, CYP3A4; assay: Inhibition of human CYP enzymes, CYP3A4
# [21] = molecular target: CYP2D6 (Homo sapiens, UniProt P10635); assay: Inhibition of human CYP enzymes, CYP2D6
# [22] = Plasma apparent steady-state concentration after 10-h IV infusion
# [23] = 40 mg/m2, oral, 40 mg/m^2, n=10
# T1 sequence (P08684 whole entry): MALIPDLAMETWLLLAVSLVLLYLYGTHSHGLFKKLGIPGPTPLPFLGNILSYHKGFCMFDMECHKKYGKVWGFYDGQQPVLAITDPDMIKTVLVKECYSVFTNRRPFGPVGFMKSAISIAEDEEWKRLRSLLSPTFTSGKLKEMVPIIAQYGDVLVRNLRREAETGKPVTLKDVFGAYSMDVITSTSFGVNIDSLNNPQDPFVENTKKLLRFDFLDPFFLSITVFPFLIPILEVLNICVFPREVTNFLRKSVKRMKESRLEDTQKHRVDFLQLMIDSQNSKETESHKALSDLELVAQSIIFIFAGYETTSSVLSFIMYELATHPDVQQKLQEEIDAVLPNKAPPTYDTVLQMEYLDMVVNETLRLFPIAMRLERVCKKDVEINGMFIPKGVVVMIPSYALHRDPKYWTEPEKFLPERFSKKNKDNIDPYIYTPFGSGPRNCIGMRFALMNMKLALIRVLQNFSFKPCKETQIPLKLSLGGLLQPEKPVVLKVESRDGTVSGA
# Chain of CYP2C9 (P11712 whole entry): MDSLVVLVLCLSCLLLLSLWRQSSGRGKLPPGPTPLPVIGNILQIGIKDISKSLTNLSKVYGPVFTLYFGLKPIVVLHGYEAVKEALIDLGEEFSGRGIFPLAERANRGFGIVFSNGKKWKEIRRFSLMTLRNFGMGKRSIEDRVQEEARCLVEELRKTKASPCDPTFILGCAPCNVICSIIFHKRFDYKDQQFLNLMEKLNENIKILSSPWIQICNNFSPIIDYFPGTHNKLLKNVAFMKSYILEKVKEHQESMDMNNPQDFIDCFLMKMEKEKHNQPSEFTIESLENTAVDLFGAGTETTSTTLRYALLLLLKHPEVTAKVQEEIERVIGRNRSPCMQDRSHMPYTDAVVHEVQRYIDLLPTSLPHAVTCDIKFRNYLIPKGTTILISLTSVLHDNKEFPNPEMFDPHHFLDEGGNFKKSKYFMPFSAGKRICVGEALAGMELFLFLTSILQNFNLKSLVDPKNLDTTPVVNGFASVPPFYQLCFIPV
# Chain of human CYP2C19 (P33261 whole entry): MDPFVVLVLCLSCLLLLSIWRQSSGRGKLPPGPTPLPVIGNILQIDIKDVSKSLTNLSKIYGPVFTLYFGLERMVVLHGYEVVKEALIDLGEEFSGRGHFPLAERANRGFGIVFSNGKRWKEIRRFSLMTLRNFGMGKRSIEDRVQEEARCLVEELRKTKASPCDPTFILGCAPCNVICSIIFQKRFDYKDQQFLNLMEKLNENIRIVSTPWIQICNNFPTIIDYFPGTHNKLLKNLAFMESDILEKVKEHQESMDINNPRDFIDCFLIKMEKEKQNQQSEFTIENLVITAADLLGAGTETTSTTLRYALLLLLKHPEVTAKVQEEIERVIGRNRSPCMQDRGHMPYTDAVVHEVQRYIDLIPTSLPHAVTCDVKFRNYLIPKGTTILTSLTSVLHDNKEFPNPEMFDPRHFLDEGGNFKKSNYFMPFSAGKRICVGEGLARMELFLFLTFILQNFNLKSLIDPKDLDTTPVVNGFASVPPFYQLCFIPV
# Chain of CYP2D6 (P10635 whole entry, the tested form may be a part): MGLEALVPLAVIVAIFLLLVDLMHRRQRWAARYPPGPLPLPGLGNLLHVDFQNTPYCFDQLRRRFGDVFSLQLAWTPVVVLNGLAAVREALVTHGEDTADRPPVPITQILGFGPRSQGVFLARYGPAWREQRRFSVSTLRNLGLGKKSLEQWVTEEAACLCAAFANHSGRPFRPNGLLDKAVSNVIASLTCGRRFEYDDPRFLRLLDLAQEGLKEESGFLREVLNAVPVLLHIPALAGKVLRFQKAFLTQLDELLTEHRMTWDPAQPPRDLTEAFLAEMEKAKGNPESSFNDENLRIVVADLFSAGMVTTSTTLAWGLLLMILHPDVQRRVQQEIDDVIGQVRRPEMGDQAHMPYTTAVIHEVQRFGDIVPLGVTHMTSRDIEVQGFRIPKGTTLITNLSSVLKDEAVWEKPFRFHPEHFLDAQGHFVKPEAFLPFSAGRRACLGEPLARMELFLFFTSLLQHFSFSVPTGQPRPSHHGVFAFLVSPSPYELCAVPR
smiles,measurement,setting,value
"C/C(=C\c1csc(CN)n1)[C@@H]1C[C@@H]2O[C@]2(C)CCC[C@H](C)[C@H](O)[C@@H](C)C(=O)C(C)(C)[C@@H](O)CC(=O)O1 (relative stereo) [Compound A, [1S-[1R*,3R*(E),7R*,10S*,11R*,12R*,16S*]]-3-[2-[2-(aminomethyl)-4-thiazolyl]-1-methylethenyl]-7,11-dihydroxy-8,8,10,12,16-pentamethyl-4,17-dioxabicyclo[14.1.0]heptadecane-5,9-dione]",time for 5% drug loss (t95),[1]; pH 2.5,< 0.2 h
same,time for 5% drug loss (t95),[1]; pH 7,approximately 14 h
same,water solubility,[2],highly water-soluble
same,IC50,[3],0.0119 µM
same,"Polymerization Potency, EC0.01",[4],7.4 µM
same,Ratio of Polymerization Potency of Analog/Paclitaxel,[4],1.7
same,decrease of Purkinje fiber APD90,[5],less than 10%
same,stable through freeze-thaw cycles,[6]; rat EDTA plasma,at least 3 freeze-thaw cycles
same,stable in frozen plasma,"[6]; rat EDTA plasma, !20EC",at least 4 months
same,stable in plasma prior to processing,"[6]; rat EDTA plasma, room temperature",at least 4 h
same,stable in fresh whole blood,"[6]; rat EDTA whole blood, 4EC",at least 1 h
same,stable in an autosampler after processing,"[6]; rat plasma samples, 4EC",at least 5 days
same,CLT,[7]; IV 0.5 mg/kg,about 25.7 mL/min/kg
same,T-HALF,[7]; IV 0.5 mg/kg,3.9 h
same,Vd,"[7]; male, beagle, dog, plasma, IV 0.5 mg/kg, read-out: VSS",4.7 L/kg
same,bioavailability,"[7]; male, beagle, dog, plasma, oral 1 mg/kg vs IV 0.5 mg/kg, read-out: mean absolute oral bioavailability",40%
same,T-HALF,[7]; oral 1 mg/kg,3.1 h
same,AUC,[8]; [23],631 ng·h/mL
same,Cmax,[8]; [23],177 ng/mL
same,half-life,"[8]; 40 mg/m2, oral, 40 mg/m^2, n=10, read-out: Half-Life (SD) (converted)",29.8 h
same,Tmax,"[8]; 40 mg/m2, oral, 40 mg/m^2, n=10, read-out: Tmax, median (minimum, maximum)",1 h
same,bioavailability,"[8]; oral vs IV, 40 mg/m^2, n = 9, read-out: Bioavailability (SD)",27%
same,"effect of CYP3A4 inhibitors (troleandomycin, ketoconazole) on biotransformation",[9],completely inhibited
same,time solutions are stable after final dilution,[10],≤ 24 h
same,OD (optimal dose or maximum tolerated dose),[11],8 mg/kg
same,MTD,[12],10 mg/kg/inj
same,LCK (gross log cell kill),[12]; iv,1.2
same,increase in systemic exposure with cremophor vehicle,vehicle 2 compared to vehicle 1,about 3.4 fold
same,increase in systemic exposure with cremophor vehicle,vehicle 2 compared to vehicle 3,~5.3 fold
same,increase in systemic exposure with cremophor vehicle,[13],about 4 fold
same,IC50,[14],2.4 µM
same,IC50,[15],10.6 µM
same,rate of oxidative metabolism,[16],0.05 mmol/min/mg protein
same,rate of oxidative metabolism,[17],0.07
same,rate of oxidative metabolism,[18],0.06
same,rate of oxidative metabolism,[19],0.06
same,IC50,[20],7.1 µM
same,IC50,[21],> 70 µM
same,apparent steady-state concentrations,"[22]; doses of 2 and 4 mg/kg, 10-h IV infusion, mouse plasma",18-31 ng/mL and 35-60 nM
same,MEC,"[22]; estimated from plasma Css, 10-hr IV infusion, Pat-7 model",35 to 60 nM
